Data taken from publication PMC8708424, “Pharmacologically Targeting the Fibroblast Growth Factor 14 Interaction Site on the Voltage-Gated Na^+ Channel 1.6 Enables Isoform-Selective Modulation” (International Journal of Molecular Sciences, 2021).
Where a SMILES comes first, the peptide text is derived from it. The star is where a group is joined. Fmoc = O=C(OCC1c2ccccc2-c2ccccc21)*; tBu = CC(C)(C)*

Biological target: T1, voltage-gated Na+ channel 1.6 (Nav1.6) (Homo sapiens, UniProt Q9UQD0)
T1 construct: gene SCN8A; hNav1.6 channel stably expressed in HEK293 cells
T1 sequence (Q9UQD0 whole entry): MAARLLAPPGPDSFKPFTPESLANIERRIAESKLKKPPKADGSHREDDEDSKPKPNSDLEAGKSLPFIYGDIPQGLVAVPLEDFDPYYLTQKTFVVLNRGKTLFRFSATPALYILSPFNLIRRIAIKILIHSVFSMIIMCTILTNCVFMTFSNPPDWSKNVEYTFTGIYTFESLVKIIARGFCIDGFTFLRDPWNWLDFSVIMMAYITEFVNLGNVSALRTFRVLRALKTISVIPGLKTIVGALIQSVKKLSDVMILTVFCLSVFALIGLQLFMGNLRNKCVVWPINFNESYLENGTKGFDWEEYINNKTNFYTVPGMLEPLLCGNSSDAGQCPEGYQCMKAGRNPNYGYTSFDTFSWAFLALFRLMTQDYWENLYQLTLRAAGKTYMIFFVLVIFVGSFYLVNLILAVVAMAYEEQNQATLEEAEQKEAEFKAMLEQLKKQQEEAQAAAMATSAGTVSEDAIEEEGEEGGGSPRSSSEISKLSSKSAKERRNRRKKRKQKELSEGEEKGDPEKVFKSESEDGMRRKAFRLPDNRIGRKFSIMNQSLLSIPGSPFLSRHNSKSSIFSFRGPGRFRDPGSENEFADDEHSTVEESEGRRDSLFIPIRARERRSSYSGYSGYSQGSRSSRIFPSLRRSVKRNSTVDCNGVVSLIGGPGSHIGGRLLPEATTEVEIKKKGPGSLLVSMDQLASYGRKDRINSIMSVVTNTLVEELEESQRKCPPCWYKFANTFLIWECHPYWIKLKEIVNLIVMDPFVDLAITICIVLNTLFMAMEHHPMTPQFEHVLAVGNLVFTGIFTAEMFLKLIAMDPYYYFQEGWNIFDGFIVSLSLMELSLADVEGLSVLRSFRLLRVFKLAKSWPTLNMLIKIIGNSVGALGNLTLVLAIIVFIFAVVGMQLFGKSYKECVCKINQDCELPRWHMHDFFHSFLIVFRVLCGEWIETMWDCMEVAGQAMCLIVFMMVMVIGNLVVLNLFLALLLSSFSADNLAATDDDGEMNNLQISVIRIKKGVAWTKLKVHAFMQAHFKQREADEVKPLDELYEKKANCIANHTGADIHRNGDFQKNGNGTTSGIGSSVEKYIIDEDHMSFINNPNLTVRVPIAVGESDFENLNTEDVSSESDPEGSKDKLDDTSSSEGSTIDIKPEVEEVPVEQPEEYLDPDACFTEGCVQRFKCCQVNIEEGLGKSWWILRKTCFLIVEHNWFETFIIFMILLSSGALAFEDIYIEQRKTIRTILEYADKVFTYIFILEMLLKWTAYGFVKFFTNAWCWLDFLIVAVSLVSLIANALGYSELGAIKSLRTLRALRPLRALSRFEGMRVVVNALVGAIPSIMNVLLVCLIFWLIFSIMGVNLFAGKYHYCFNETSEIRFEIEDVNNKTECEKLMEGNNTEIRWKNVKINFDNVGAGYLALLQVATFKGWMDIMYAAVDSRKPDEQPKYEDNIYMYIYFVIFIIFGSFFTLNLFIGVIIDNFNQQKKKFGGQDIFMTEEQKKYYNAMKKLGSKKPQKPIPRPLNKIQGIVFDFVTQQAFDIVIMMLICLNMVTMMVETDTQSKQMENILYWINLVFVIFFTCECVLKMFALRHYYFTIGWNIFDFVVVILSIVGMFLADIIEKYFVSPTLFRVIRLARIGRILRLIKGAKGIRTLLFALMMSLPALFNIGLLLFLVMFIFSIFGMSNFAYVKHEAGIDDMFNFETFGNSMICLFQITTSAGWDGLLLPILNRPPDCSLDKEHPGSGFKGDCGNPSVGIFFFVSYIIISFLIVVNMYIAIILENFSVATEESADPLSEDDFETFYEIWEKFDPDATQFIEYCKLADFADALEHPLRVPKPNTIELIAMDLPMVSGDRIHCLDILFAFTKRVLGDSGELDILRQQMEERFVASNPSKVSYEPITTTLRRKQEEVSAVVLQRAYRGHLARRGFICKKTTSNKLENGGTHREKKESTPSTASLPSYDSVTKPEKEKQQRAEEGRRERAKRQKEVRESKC
Test: whole-cell voltage-clamp electrophysiology in HEK-Nav1.[…] cells, peak transient INa dose-response
Type: cell-based

CC(C)[C@H](NC(=O)[C@H](Cc1ccc(OC(C)(C)C)cc1)NC(=O)[C@H](Cc1ccc(OC(C)(C)C)cc1)NC(=O)OCC1c2ccccc2-c2ccccc21)C(N)=O [PW201] (Fmoc-Tyr(tBu)-Tyr(tBu)-Val-NH2)
IC50: 15.1 µM
